# Experimental data taken from patent US5036008A, “Antitumor antibiotic BU-3285T” (Bristol-Myers Company, priority 1990, dated 1991).
# “Also recorded” adds a separate entry of the source.
# Columns and labels:
# [1] = tested on: protein biosynthesis in L1210 leukemia cells; assay: Inhibition of macromolecule biosynthesis, protein (Table 7); format: cell-based, murine
# Description: (§1) Inhibitory effects of BU-3285T on macromolecule biosynthesis (DNA, RNA and protein) were determined in cultured L1210 murine leukemia cells. The cells (5×10^5 cells/ml) were incubated with the compound at 37° C. for 15 minutes and then further incubated for 60 minutes after the addition of labelled precursor, ^3 H-thymidine, ^14 C-uridine or ^3 H-leucine into the cultured mixture. After washing with chilled 5% trichloroacetic acid solution, the radioactivity incorporated into the acid-insoluble fraction of the cells was determined by a liquid scintillation counter.
# [2] = tested on: Sporothrix schenckii IF08158; assay: microbe, parasite or virus in culture; conditions: IF08158, 40 h, pH 7
# Description: (§4) In vitro antifungal activity was determined against various fungi by the serial agar dilution method. Sabouraud dextrose agar (pH 7.0) was used for the experiment. The inoculum size was adjusted to 10^6 CFU/ml. After incubation at 28° C. for 40 hours, the minimum inhibitory concentration (MIC) was examined.
# [3] = tested on: P388 leukemia; assay: In vivo antitumor activity against P388 leukemia (Table 8); conditions: for Body wt. change on day 4 / MST (median survival time) / T/C: Q1D × 3
# [4] = tested on: DNA biosynthesis in L1210 leukemia cells; assay: Inhibition of macromolecule biosynthesis, DNA (Table 15); format: cell-based, murine; conditions: at 100 μg/ml, the highest concentration tested
# Description: as §1, with “the above compounds” for “BU-3285T”, “macromolecule” for “macromolecule biosynthesis”, “protein) biosynthesis” for “protein)”, “test materials” for “compound”, “labeled” for “labelled”, “with” for “by”
# [5] = tested on: P388 (murine lymphocytic leukemia) cells; assay: In vitro cytotoxicity (Table 6); format: cell-based; conditions: Mus musculus; P388, 72 hrs, Coulter counter
# Description: (§2) BU-3285T was tested for in vitro cytotoxicity against several murine and human tumor cell lines and for in vivo antitumor activity in mice. Mitomycin C was used as a reference compound in both in vitro and in vivo experiments. B16-F10 (murine melanoma) and Moser (human colorectal carcinoma) cells were grown to the logarithmic phase in an enriched Eagle minimum essential medium supplemented with fetal calf serum (FCS, 10%) and kanamycin (60 μg/ml); HCT-116 (human colon carcinoma) cells were in McCoy's 5A medium supplemented with FCS (10%), penicillin (100 U/ml) and streptomycin (100 μg/ml); and P388 (murine lymphocytic leukemia) cells and its vincristine-resistant subline (P388/VCR) were in RPMI 1640 medium supplemented with FCS (10%), penicillin (100 U/ml) and streptomycin (100 μg/ml).
# (§3) B16-F10, Moser, HCT-116 and P388 cells were harvested and implanted into wells of a 96-well (for B16-F10, Moser and HCT-116 cells) or a 24-well (for P388 cells) tissue culture plate with test materials at the inoculum sizes of 3×10^4, 6 ×10^4, 6×10^4 and 2×10^4 cells/ml, respectively. They were incubated at 37° C. in a humidified atmosphere of 5% CO2 and 95% air for 72 hrs. […] For P388 cells, the number of viable cells was determined by a Coulter counter.
# [6] = tested on: B16-F10 (murine melanoma) cells; assay: In vitro cytotoxicity (Table 6); format: cell-based; conditions: Mus musculus; B16-F10, 72 hrs, neutral red
# Description: as §2, §3
# [7] = tested on: HCT-116 (human colon carcinoma) cells; assay: In vitro cytotoxicity (Table 6); format: cell-based; conditions: HCT-116, 72 hrs, neutral red
# Description: as §2, §3
# [8] = tested on: T. mentagrophytes #4329; assay: In vitro antifungal activity, serial agar dilution; conditions: Trichophyton mentagrophytes, 40 h, pH 7
# Description: as §4
# [9] = tested on: murine and human tumor cell lines; assay: In vitro cytotoxicity, overall statement
# Description: After planting 180 μl of cell suspension into wells of a 96-well microtiter plate on day 0, the test materials (20 μl) were added on day 1 and the plates were incubated for 72 hours. The cytotoxic activity was colorimetrically determined at 540 nm after staining viable cells with neutral red solution.
# [10] = tested on: Piricularia oryzae D91; assay: microbe, parasite or virus in culture; format: cell-based; conditions: 40 h, pH 7
# [11] = tested on: HCT-116 (human colon carcinoma) cells; assay: In vitro cytotoxicity (Table 14); format: cell-based; conditions: HCT-116, 72 h
# Description: (§5) B16-F10 (murine melanoma), HCT-116 (human colon carcinoma), A549 (human lung carcinoma) and A549/VP29 (an etoposide-resistant subline of A549) were grown in Eagle's MEM (Nissui) supplemented with FCS (fetal calf serum, 10%) and non-essential amino acids (B16-F10), or in McCoy's 5A medium (Gibco) with FCS (10%), essential and non-essential amino acids, vitamins and antibiotics (HCT-116 and both of A549) at 37° C. under a humidified atmosphere in a 5% CO2 incubator. Exponentially growing B16-F10, HCT-116 and A549 cells were harvested, counted and suspended in the culture medium at 1.5×10^4, 3×10^4 and 3×10^4 cells/ml, respectively. After planting 180 μl of cell suspension into wells of a 96-well microtiter plate on day 0, the test materials (20 μl) were added on day 1 and the plates were incubated for 72 hours. The cytotoxic activity was colorimetrically determined at 540 nm after staining viable cells with neutral red solution.
# [12] = tested on: B16 melanoma; assay: In vivo antitumor activity against B16 melanoma (Table 10)
# Description: Female CDF1 mice were intraperitoneally inoculated with 0.4 ml of diluted ascitic fluid containing 10^6 lymphocytic leukemia P388 cells or 10^5 lymphoid leukemia L1210 cells and male BDF1 mice were intraperitoneally inoculated with 0.5 ml of 10% melanotic melanoma B16 brei.
# [13] = tested on: fungi; assay: In vitro antifungal activity, overall statement; conditions: various fungi
# Description: as §4
# [14] = tested on: A549 (human lung carcinoma) cells; assay: In vitro cytotoxicity (Table 14); format: cell-based; conditions: A549, 72 h
# Description: as §5
# [15] = tested on: RNA biosynthesis in L1210 leukemia cells; assay: Inhibition of macromolecule biosynthesis, RNA (Table 7); format: cell-based, murine; conditions: Mus musculus, labelled precursor, 15 min + 60 min, 37° C., read-out: IC50, RNA synthesis
# Description: as §1
# [16] = tested on: A. flavus FA21436; assay: In vitro antifungal activity, serial agar dilution; conditions: Aspergillus flavus, FA21436, 40 h, pH 7
# Description: as §4
# [17] = tested on: Blastomyces dermatidis D40; assay: In vitro antifungal activity, serial agar dilution; conditions: D40, 40 h, pH 7
# Description: as §4
# [18] = tested on: Trichophyton mentagrophytes D155; assay: In vitro antifungal activity, serial agar dilution; conditions: D155, 40 h, pH 7
# Description: as §4
# [19] = tested on: C. neoformans IAM4514; assay: In vitro antifungal activity, serial agar dilution; conditions: Cryptococcus neoformans, IAM4514, 40 h, pH 7
# Description: as §4
# [20] = tested on: A. fumigatus IAM2034; assay: microbe, parasite or virus in culture; conditions: Aspergillus fumigatus, IAM2034, 40 h, pH 7
# Description: as §4
compound,measurement,setting,value
CCCCC/C=C/C=C\C=C/C(O)C(C)C(C/C=C/C1OC(=O)C=CC1O)OS(=O)(=O)O (centres unmarked) [BU-3285T],inhibition of protein synthesis (specificity),[1]; L-1210 leukemia cells,specific inhibitor of protein synthesis
same,IC50,"[1]; Mus musculus, L1210, labelled precursor, 15 min + 60 min, 37° C., read-out: IC50, protein synthesis",0.78 µg/mL
same,inhibition of protein synthesis stronger than RNA synthesis,"[1]; protein vs RNA synthesis, L1210 cells",18 times
same,MIC,[2],100 µg/mL
same,Body wt. change on day 4,[3]; 0.1 mg/kg/day ip,+1.5 g
same,MST (median survival time),[3]; 0.1 mg/kg/day ip,12.0 days
same,T/C,"[3]; 0.1 mg/kg/day ip, significant if T/C ≥ 125%",120%
same,Body wt. change on day 4,[3]; 0.3 mg/kg/day ip,+1.0 g
same,MST (median survival time),[3]; 0.3 mg/kg/day ip,13.0 days
same,T/C,"[3]; 0.3 mg/kg/day ip, *2 significant, T/C ≥ 125%",130%
same,Body wt. change on day 4,[3]; 1 mg/kg/day ip,+1.0 g
same,MST (median survival time),[3]; 1 mg/kg/day ip,14.0 days
same,T/C,"[3]; 1 mg/kg/day ip, *2 significant, T/C ≥ 125%",140%
same,Body wt. change on day 4,[3]; 3 mg/kg/day ip,+1.5 g
same,MST (median survival time),[3]; 3 mg/kg/day ip,15.0 days
same,T/C,"[3]; 3 mg/kg/day ip, *2 significant, T/C ≥ 125%",150%
same,Body wt. change on day 4,[3]; 10 mg/kg/day ip,0.0 g
same,MST (median survival time),[3]; 10 mg/kg/day ip,16.0 days
same,T/C,"[3]; 10 mg/kg/day ip, *2 significant, T/C ≥ 125%",160%
same,activity compared with mitomycin C,"[3]; P388, in terms of minimum effective dose",comparable
same,in vivo antitumor activity,[3]; P388 leukemia in mice,potent in vivo inhibitory activity; also recorded: good antitumor activity
same,inhibitory effect on DNA synthesis,[4],no significant inhibitory effect
same,IC50,[5],3.8 µg/mL
same,IC50,[6],13.3 µg/mL
same,IC50,[7],3.4 µg/mL
same,MIC,[8],12.5 µg/mL
same,cytotoxicity in vitro,[9]; murine and human tumor cell lines,exhibits in vitro antifungal activity and cytotoxicity; also recorded: quite active
same,IC50 values against the murine and human tumor cell lines (range),[9]; range over cell lines of Table 14,1.9 to 38 µg/mL
same,MIC,[10],50 µg/mL
same,IC50,[11],1.9 µg/mL
same,activity compared with mitomycin C,"[12]; B16, in terms of minimum effective dose",somewhat weaker
same,in vivo antitumor activity,[12]; B16 melanoma in mice,potent in vivo inhibitory activity; also recorded: good antitumor activity
same,antifungal activity in vitro,[13],exhibits in vitro antifungal activity
same,antifungal activity in vitro,[13]; listed as BU-3285 T,relatively good and broad antifungal profile
same,IC50,[14],4.1 µg/mL
same,IC50,[15],14.4 µg/mL
same,MIC,[16],50 µg/mL
same,MIC,[17],12.5 µg/mL
same,MIC,[18],25 µg/mL
same,MIC,[19],1.6 µg/mL
same,MIC,[20],> 100 µg/mL
